Assay results from ChEMBL document CHEMBL1201862, “PubChem BioAssay data set” (2004).
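Protocol summary: plate cells (96-well), add compound at 5 concentrations, incubate 48 h, interpolate endpoints linearly. GI50: concentration for 50% inhibition of growth.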 Calls of active or inactive are those of the source. Cut-off read from the data, not from the text of the source: active = GI50 up to about 1.1 µM and inactive = higher.

What was measured:
Assay in all cases: NCI anticancer screen, dose series, 48 h
786-0 = tested on: 786-0
A498 = tested on: A498
A549 = tested on: A549
ACHN = tested on: ACHN
CAKI-1 = tested on: CAKI-1
CCRF-CEM = tested on: CCRF-CEM
COLO 205 = tested on: COLO 205
DU-145 = tested on: DU-145
EKVX = tested on: EKVX
HCT-116 = tested on: HCT-116
HCT-15 = tested on: HCT-15
HL-60 = tested on: HL-60
HOP-62 = tested on: HOP-62
HOP-92 = tested on: HOP-92
HT-29 = tested on: HT-29
Hs-578T = tested on: Hs-578T
IGROV-1 = tested on: IGROV-1
K562 = tested on: K562
KM12 = tested on: KM12
LOX IMVI = tested on: LOX IMVI
M14 = tested on: M14
MCF7 = tested on: MCF7
MDA-MB-231 = tested on: MDA-MB-231
MDA-MB-435 = tested on: MDA-MB-435
MDA-N = tested on: MDA-N
MOLT-4 = tested on: MOLT-4
Malme-3M = tested on: Malme-3M
NCI-H226 = tested on: NCI-H226
NCI-H23 = tested on: NCI-H23
NCI-H460 = tested on: NCI-H460
NCI-H522 = tested on: NCI-H522
NCI/ADR-RES = tested on: NCI/ADR-RES
OVCAR-3 = tested on: OVCAR-3
OVCAR-4 = tested on: OVCAR-4
OVCAR-5 = tested on: OVCAR-5
OVCAR-8 = tested on: OVCAR-8
RPMI-8226 = tested on: RPMI-8226
RXF 393 = tested on: RXF 393
SF-268 = tested on: SF-268
SF-295 = tested on: SF-295
SF-539 = tested on: SF-539
SK-MEL-28 = tested on: SK-MEL-28
SK-MEL-5 = tested on: SK-MEL-5
SK-OV-3 = tested on: SK-OV-3
SN12C = tested on: SN12C
SNB-19 = tested on: SNB-19
SNB-75 = tested on: SNB-75
SR = tested on: SR
SW-620 = tested on: SW-620
T47D = tested on: T47D
TK-10 = tested on: TK-10
U-251 = tested on: U-251
UACC-257 = tested on: UACC-257
UACC-62 = tested on: UACC-62
UO-31 = tested on: UO-31
HCC 2998 = tested on: HCC 2998
PC-3 = tested on: PC-3
SK-MEL-2 = tested on: SK-MEL-2

Measured: GI50

N[C@H](Cc1ccc2oc3cc(=O)c4ccccc4c-3nc2c1)C(=O)O
39.4 µM: HCT-15
inactive: 786-0 89.9 µM | A498 49.7 µM | A549 33.7 µM | ACHN > 100 µM | CAKI-1 > 100 µM | CCRF-CEM 20.9 µM | COLO 205 30.3 µM | DU-145 21.7 µM | EKVX > 100 µM | HCT-116 46.3 µM | HL-60 27.7 µM | HOP-62 46.5 µM | HOP-92 > 100 µM | HT-29 29.2 µM | Hs-578T 39.6 µM | IGROV-1 32.3 µM | K562 26.2 µM | KM12 37.3 µM | LOX IMVI 33.2 µM | M14 19.3 µM | MCF7 28.5 µM | MDA-MB-231 62.7 µM | MDA-MB-435 15.5 µM | MDA-N 15.3 µM | MOLT-4 37.8 µM | Malme-3M 21 µM | NCI-H226 40.8 µM | NCI-H23 23.7 µM | NCI-H460 25.9 µM | NCI-H522 44.7 µM | NCI/ADR-RES > 100 µM | OVCAR-3 29.2 µM | OVCAR-4 > 100 µM | OVCAR-5 65.9 µM | OVCAR-8 30.5 µM | RPMI-8226 24.2 µM | RXF 393 70.1 µM | SF-268 79.6 µM | SF-295 42 µM | SF-539 42.8 µM | SK-MEL-28 > 100 µM | SK-MEL-5 20.1 µM | SK-OV-3 > 100 µM | SN12C 42.5 µM | SNB-19 34.4 µM | SNB-75 67 µM | SR 17.9 µM | SW-620 46.7 µM | T47D > 100 µM | TK-10 97.5 µM | U-251 98.4 µM | UACC-257 29.8 µM | UACC-62 26.7 µM | UO-31 > 100 µM

COc1ccc(Nc2nc3c([nH]2)c(=O)n(C)c(=O)n3C)cc1
inactive: 786-0 > 10 µM | A549 > 10 µM | CAKI-1 > 10 µM | CCRF-CEM > 10 µM | COLO 205 > 10 µM | DU-145 > 10 µM | EKVX > 10 µM | HCC 2998 > 10 µM | HL-60 > 10 µM | HOP-62 > 10 µM | HOP-92 > 10 µM | HT-29 > 10 µM | IGROV-1 > 10 µM | K562 > 10 µM | KM12 > 10 µM | LOX IMVI > 10 µM | M14 > 10 µM | MCF7 > 10 µM | MDA-MB-231 > 10 µM | MDA-MB-435 > 10 µM | MDA-N > 10 µM | MOLT-4 > 10 µM | Malme-3M > 10 µM | NCI-H23 > 10 µM | OVCAR-4 > 10 µM | OVCAR-8 > 10 µM | PC-3 > 10 µM | RPMI-8226 > 10 µM | RXF 393 > 10 µM | SF-268 > 10 µM | SF-295 > 10 µM | SK-MEL-28 > 10 µM | SK-MEL-5 > 10 µM | SK-OV-3 > 10 µM | SN12C > 10 µM | SNB-75 > 10 µM | SR > 10 µM | SW-620 > 10 µM | T47D > 10 µM | TK-10 > 10 µM | UACC-257 > 10 µM | UACC-62 > 10 µM
> 10 µM: HCT-15

O=[N+]([O-])c1cc(Cl)c(Cl)cc1[N+](=O)[O-]
active: MOLT-4 0.212 µM
2.85 µM: HCT-15
inactive: 786-0 2.8 µM | A498 18.5 µM | A549 2.29 µM | ACHN 2.56 µM | CAKI-1 2.34 µM | CCRF-CEM 5.94 µM | COLO 205 5.77 µM | DU-145 2.07 µM | EKVX 2.83 µM | HCT-116 20.1 µM | HL-60 1.9 µM | HOP-62 2.74 µM | HT-29 4.16 µM | Hs-578T 13.9 µM | IGROV-1 1.98 µM | K562 2.43 µM | KM12 3.27 µM | LOX IMVI 2.37 µM | M14 3.51 µM | MCF7 2.06 µM | MDA-MB-231 2.25 µM | MDA-MB-435 4.07 µM | Malme-3M 2.74 µM | NCI-H226 3.89 µM | NCI-H23 2.14 µM | NCI-H460 3.24 µM | NCI-H522 1.87 µM | NCI/ADR-RES 4.18 µM | OVCAR-3 1.48 µM | OVCAR-4 2.48 µM | OVCAR-5 2.51 µM | OVCAR-8 2.91 µM | PC-3 1.74 µM | RPMI-8226 4.17 µM | RXF 393 1.63 µM | SF-268 1.81 µM | SF-295 3.08 µM | SF-539 2.13 µM | SK-MEL-28 2.64 µM | SK-MEL-2 2.44 µM | SK-MEL-5 14.6 µM | SN12C 1.91 µM | SNB-75 3.6 µM | SR 1.89 µM | SW-620 2.91 µM | T47D 3.24 µM | TK-10 3.55 µM | U-251 2 µM | UACC-257 2.15 µM | UACC-62 2.23 µM | UO-31 1.93 µM

COc1ccc2cc3[n+](cc2c1OC)CCc1cc2c(cc1-3)OCO2
inactive: 786-0 45 µM | ACHN > 100 µM | CCRF-CEM 18.4 µM | DU-145 35.7 µM | HL-60 18.2 µM | HOP-92 24.5 µM | HT-29 38.8 µM | Hs-578T 11.3 µM | IGROV-1 55.5 µM | KM12 6.11 µM | LOX IMVI 59.6 µM | M14 39.8 µM | MDA-MB-231 21.5 µM | MDA-MB-435 12.6 µM | Malme-3M 7.6 µM | NCI-H23 7.93 µM | NCI-H460 14.9 µM | OVCAR-8 16.8 µM | PC-3 20.3 µM | SF-268 6.75 µM | SF-539 52.2 µM | SK-MEL-28 14.7 µM | SK-MEL-2 23.8 µM | SK-MEL-5 4.78 µM | SK-OV-3 78 µM | SNB-19 5.69 µM | SW-620 55.3 µM | T47D 5.26 µM | TK-10 85.5 µM | UACC-62 16 µM

O=c1c2cc([N+](=O)[O-])ccc2n2n1CCCCC2
inactive: 786-0 > 100 µM | A498 > 100 µM | A549 > 100 µM | ACHN > 100 µM | CAKI-1 > 100 µM | CCRF-CEM > 100 µM | COLO 205 > 100 µM | DU-145 > 100 µM | EKVX > 100 µM | HCC 2998 > 100 µM | HCT-116 > 100 µM | HL-60 > 100 µM | HOP-62 > 100 µM | HOP-92 > 100 µM | HT-29 > 100 µM | Hs-578T > 100 µM | IGROV-1 > 100 µM | K562 > 100 µM | KM12 > 100 µM | LOX IMVI > 100 µM | M14 > 100 µM | MDA-MB-231 > 100 µM | MDA-MB-435 > 100 µM | MDA-N > 100 µM | MOLT-4 > 100 µM | Malme-3M > 100 µM | NCI-H226 > 100 µM | NCI-H23 > 100 µM | NCI-H460 > 100 µM | NCI-H522 > 100 µM | NCI/ADR-RES > 100 µM | OVCAR-3 > 100 µM | OVCAR-4 > 100 µM | OVCAR-5 > 100 µM | OVCAR-8 > 100 µM | PC-3 > 100 µM | RPMI-8226 > 100 µM | RXF 393 > 100 µM | SF-268 > 100 µM | SF-295 > 100 µM | SF-539 > 100 µM | SK-MEL-28 > 100 µM | SK-MEL-5 > 100 µM | SK-OV-3 > 100 µM | SN12C > 100 µM | SNB-19 > 100 µM | SNB-75 > 100 µM | SR > 100 µM | SW-620 > 100 µM | TK-10 61.8 µM | U-251 > 100 µM | UACC-257 > 100 µM | UACC-62 > 100 µM | UO-31 > 100 µM
> 100 µM: HCT-15

NS(=O)(=O)c1ccc(/C=C/c2ccc(F)cc2)cc1
inactive: 786-0 21.2 µM | A498 29.4 µM | COLO 205 24.8 µM | DU-145 50.1 µM | EKVX 47.3 µM | HCC 2998 51.8 µM | HCT-116 16.9 µM | HOP-62 34 µM | M14 79.4 µM | MCF7 23.9 µM | MDA-MB-231 9.53 µM | MDA-N 43.5 µM | Malme-3M 40.5 µM | NCI-H460 23.5 µM | NCI/ADR-RES 26.3 µM | OVCAR-3 16.7 µM | OVCAR-5 > 100 µM | PC-3 39 µM | RXF 393 15.6 µM | SF-295 28.9 µM | SK-MEL-28 47.4 µM | SK-MEL-2 20.7 µM | SK-OV-3 23.8 µM | SN12C 25.8 µM | SNB-19 33.9 µM | SNB-75 31.6 µM | SW-620 17.1 µM | T47D 14.9 µM | TK-10 21.3 µM | UACC-257 > 100 µM | UO-31 20.7 µM
